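Where inhibition never reached the appropriate level, the endpoint shown equals the highest concentration tested. Otherwise, values were interpolated linearly from a five-concentration, 48-hour dose response in 96-well plates. GI50 = concentration required for 50% inhibition of growth. TGI: concentration producing complete growth inhibition.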
Experiments:
Test in all cases: growth of human tumour cells (NCI), 48 h
[1] = tested on: SK-MEL-5 melanoma
[2] = tested on: M14 melanoma
[3] = tested on: SN12C renal
[4] = tested on: U251 CNS
[5] = tested on: ACHN renal
[6] = tested on: RPMI-8226 leukemia
[7] = tested on: HCT-15 colon
[8] = tested on: NCI-H460 lung
[9] = tested on: SR leukemia
[10] = tested on: T-47D breast

Compound: COc1cccc(C2C(C(=O)O)=C(CO)Oc3cc4c(cc32)OCO4)c1 (stereo unspecified)
- TGI [1]: > 100 µM
- TGI [2]: > 100 µM
- TGI [3]: > 100 µM
- TGI [4]: > 100 µM
- TGI [5]: > 100 µM
- TGI [6]: > 100 µM
- TGI [7]: > 100 µM
- TGI [8]: > 100 µM

Compound: COc1ccc2c(c1)O[C@H]1c3ccc(O)cc3OC[C@@H]21
- TGI [9]: 43.7 µM
- TGI [1]: 32 µM
- TGI [2]: 47.7 µM
- TGI [3]: > 100 µM
- TGI [4]: > 100 µM
- TGI [5]: 81.4 µM
- TGI [6]: 89 µM
- TGI [7]: > 100 µM
- TGI [8]: > 100 µM

Compound: O=C(N1CCC(CN=c2cc3n(-c4ccc(Cl)cc4)c4ccccc4nc-3cc2Nc2ccc(Cl)cc2)CC1)N1CC1
- GI50 [9]: 0.337 µM
- TGI [9]: 2.25 µM
- GI50 [1]: 1.49 µM
- TGI [1]: 2.81 µM
- GI50 [10]: 2.41 µM
- TGI [10]: 5.91 µM
- GI50 [4]: 1.23 µM
- TGI [4]: 2.48 µM
- GI50 [5]: 1.63 µM
- TGI [5]: 3.21 µM
- GI50 [7]: 0.512 µM
- TGI [7]: 1.87 µM

Compound: O=NNc1cnccn1
- TGI [9]: > 1110 µM
- TGI [1]: > 1250 µM
- TGI [2]: > 1250 µM
- TGI [3]: > 1250 µM
- TGI [10]: > 1250 µM
- TGI [4]: > 1250 µM
- TGI [5]: > 1250 µM
- TGI [6]: > 1250 µM
- TGI [7]: > 1250 µM
- TGI [8]: > 1250 µM

Compound: BrCCC[P+](c1ccccc1)(c1ccccc1)c1ccccc1
- TGI [9]: > 100 µM
- TGI [1]: 21 µM
- TGI [2]: > 100 µM
- TGI [3]: > 100 µM
- TGI [10]: 36.5 µM
- TGI [4]: > 100 µM
- TGI [5]: > 100 µM
- TGI [6]: > 100 µM
- TGI [7]: > 100 µM
- TGI [8]: > 100 µM

Compound: CCN(CC)CCC(=O)c1ccccc1
- TGI [9]: 35.3 µM
- TGI [1]: > 100 µM
- TGI [2]: 31.5 µM
- TGI [3]: 35.2 µM
- TGI [4]: 47.4 µM
- TGI [5]: 29.7 µM
- TGI [6]: 15.6 µM
- TGI [7]: 38.5 µM
- TGI [8]: 97.8 µM

Compound: CCOC(=O)C1(C(=O)OCC)CSC1
- TGI [9]: > 100 µM
- TGI [1]: > 100 µM
- TGI [2]: > 100 µM
- TGI [3]: > 100 µM
- TGI [10]: > 100 µM
- TGI [4]: > 100 µM
- TGI [5]: > 100 µM
- TGI [7]: > 100 µM
- TGI [8]: 1.74 µM

Compound: CCSc1nc(N2CCCCC2)c2cn[nH]c2n1
- GI50 [1]: 16.6 µM
- TGI [1]: 32.8 µM
- GI50 [3]: 25.7 µM
- TGI [3]: > 100 µM
- GI50 [10]: 16 µM
- TGI [10]: 62.4 µM
- GI50 [4]: 88.3 µM
- TGI [4]: > 100 µM
- GI50 [5]: 41.2 µM
- TGI [5]: > 100 µM
- GI50 [6]: 28 µM
- TGI [6]: > 100 µM
- GI50 [7]: > 100 µM
- TGI [7]: > 100 µM
- GI50 [8]: 20.4 µM
- TGI [8]: 76.5 µM

Compound: CC(=O)NC(CCCCNC(=O)OC(C)(C)C)C(=O)O (stereo unspecified)
- TGI [1]: > 100 µM
- TGI [2]: > 100 µM
- TGI [10]: > 100 µM
- TGI [4]: > 100 µM
- TGI [5]: > 100 µM
- TGI [6]: > 100 µM
- TGI [7]: > 100 µM
- TGI [8]: > 100 µM

Compound: COC(=O)C1=COC2OC3/C(=C\c4ccc(O)c(OC)c4)C(=O)OC34C=CC1C24 (stereo unspecified)
- TGI [9]: > 100 µM
- TGI [1]: > 100 µM
- TGI [2]: 14.7 µM
- TGI [3]: 35.1 µM
- TGI [4]: 28.5 µM
- TGI [5]: 28.3 µM
- TGI [6]: > 100 µM
- TGI [7]: 27.7 µM
- TGI [8]: 31.7 µM

Compound: CN(C)CS/C(N)=N\C(O)C(Cl)(Cl)Cl (stereo unspecified)
- TGI [9]: > 100 µM
- TGI [1]: > 100 µM
- TGI [2]: > 100 µM
- TGI [3]: > 100 µM
- TGI [10]: > 100 µM
- TGI [4]: > 100 µM
- TGI [5]: > 100 µM
- TGI [7]: > 100 µM
- TGI [8]: > 100 µM

Compound: Cn1c(=O)c2c(ncn2CCSS(=O)(=O)O)n(C)c1=O
- TGI [1]: > 100 µM
- TGI [2]: > 100 µM
- TGI [3]: > 100 µM
- TGI [10]: > 100 µM
- TGI [4]: > 100 µM
- TGI [5]: > 100 µM
- TGI [6]: > 100 µM
- TGI [7]: > 100 µM
- TGI [8]: > 100 µM

Compound: CC(=O)[O-].[Ni].c1ccc(/C(=N\Nc2ccccn2)c2ccccn2)cc1
- TGI [1]: 18.3 µM
- TGI [2]: 17.8 µM
- TGI [3]: 29.3 µM
- TGI [10]: 15.6 µM
- TGI [4]: 22.7 µM
- TGI [5]: 53 µM
- TGI [6]: 16.3 µM
- TGI [7]: 41.1 µM
- TGI [8]: 28 µM

Compound: CC(=O)[O-].CC(=O)[O-].O=C(N/N=C/c1cc(Cl)cc(Cl)c1[OH2+])c1ccncc1.[Zn+2]
- TGI [9]: > 100 µM
- TGI [1]: > 100 µM
- TGI [2]: > 100 µM
- TGI [3]: > 100 µM
- TGI [4]: > 100 µM
- TGI [5]: > 100 µM
- TGI [6]: > 100 µM
- TGI [7]: > 100 µM
- TGI [8]: > 100 µM

Compound: c1ccc(SC(Sc2ccccc2)c2ccc3c(c2)OCO3)cc1
- TGI [9]: > 100 µM
- TGI [1]: > 100 µM
- TGI [2]: > 100 µM
- TGI [3]: > 100 µM
- TGI [10]: > 100 µM
- TGI [4]: > 100 µM
- TGI [5]: > 100 µM
- TGI [7]: > 100 µM
- TGI [8]: > 100 µM

Compound: CCOc1ccc(N=Nc2ccc3oc(=O)c(/C(C)=N\NC(=O)CC(=O)Nc4ccc(Cl)cc4)cc3c2)cc1
- TGI [9]: 25 µM
- TGI [1]: 38.7 µM
- TGI [3]: 81.1 µM
- TGI [4]: 34 µM
- TGI [5]: 97.6 µM
- TGI [6]: 64.7 µM
- TGI [7]: 26.4 µM

Compound: O=C(O)c1cncc(C(=O)O)c1
- TGI [1]: > 100 µM
- TGI [2]: > 100 µM
- TGI [3]: > 100 µM
- TGI [10]: > 100 µM
- TGI [4]: > 100 µM
- TGI [5]: > 100 µM
- TGI [6]: > 100 µM
- TGI [7]: > 100 µM
- TGI [8]: > 100 µM

Compound: O=c1[nH]cc(N(CCCl)CCCl)c(=O)[nH]1
- TGI [9]: 55.1 µM
- TGI [1]: 115 µM
- TGI [2]: 89.9 µM
- TGI [3]: 162 µM
- TGI [10]: 183 µM
- TGI [4]: 253 µM
- TGI [5]: 92.6 µM
- TGI [6]: 284 µM
- TGI [7]: 251 µM
- TGI [8]: 155 µM

Compound: C=C(CN(C)C)C(=O)c1cc(C)ccc1C
- TGI [9]: 6.63 µM
- TGI [1]: 27.2 µM
- TGI [2]: 7.21 µM
- TGI [3]: 42.6 µM
- TGI [10]: 15.7 µM
- TGI [4]: 33.5 µM
- TGI [5]: 11.8 µM
- TGI [6]: 5.34 µM
- TGI [7]: 10.6 µM
- TGI [8]: 44.6 µM
